Assay results taken from patent US10131652B2, “Pyrimidinyloxy benzene derivatives as herbicides” (E. I. DU PONT DE NEMOURS AND COMPANY, priority 2014, dated 2018).

Key:
Assay type in all cases: in vivo
Conditions in all cases: scale 0 to 100
soybean (Glycine max) = assay: Test F pre-/postemergence plant response
Summary of the method: (§1)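 Values are visual ratings, where 100 is complete control and 0 is no effect, given after 14 to 21 days of greenhouse growth. Test chemicals in a non-phytotoxic, surfactant-containing solvent were sprayed on soil just after planting or on emerged seedlings at the 1- to 4-leaf stage.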

[1] = system: sandbur (southern sandbur, Cenchrus echinatus); assay: Test F pre-/postemergence plant response
Summary of the method: as §1

[2] = system: barnyardgrass (Echinochloa crus-galli); assay: Test F pre-/postemergence plant response
Summary of the method: as §1

[3] = system: lambsquarters (Chenopodium album); assay: Test F pre-/postemergence plant response
Summary of the method: as §1

[4] = system: Italian ryegrass (Lolium multiflorum); assay: Test F pre-/postemergence plant response
Summary of the method: as §1

[5] = system: dayflower (Virginia (VA) dayflower, Commelina virginica); assay: Test F pre-/postemergence plant response
Summary of the method: as §1

[6] = system: Brazilian crabgrass (Digitaria horizontalis); assay: Test F pre-/postemergence plant response
Summary of the method: as §1

[7] = system: morningglory (Ipomoea coccinea); assay: Test F pre-/postemergence plant response
Summary of the method: as §1

[8] = system: surinam grass (Brachiaria decumbens); assay: Test F pre-/postemergence plant response
Summary of the method: as §1

[9] = system: large (Lg) crabgrass (Digitaria sanguinalis); assay: Test F pre-/postemergence plant response
Summary of the method: as §1

[10] = system: giant foxtail (Setaria faberii); assay: Test F pre-/postemergence plant response
Summary of the method: as §1

[11] = system: waterhemp_RES2 (ALS & HPPD resistant common waterhemp, Amaranthus rudis); assay: Test F postemergence plant response
Summary of the method: (§2)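 Rated visually versus controls, 0 (no effect) to 100 (complete control), after 14–21 days in greenhouse. Compounds were sprayed postemergence on seedlings at 1- to 4-leaf stage, 2–18 cm tall.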

[12] = system: waterhemp_RES1 (ALS & Triazine resistant common waterhemp, Amaranthus rudis); assay: Test F postemergence plant response
Summary of the method: as §2

## Fc1ccc(Oc2ncc(Cl)cn2)c(-c2cc(C(F)F)on2)c1Cl [Compound 96]
Soybean (Glycine max); 16 g ai/ha Postemergence
  Plant response rating, Soybean: 40
Soybean (Glycine max); 16 g ai/ha Preemergence
  Plant response rating, Soybean: 0
Soybean (Glycine max); 31 g ai/ha Preemergence
  Plant response rating, Soybean: 0
Soybean (Glycine max); 62 g ai/ha Postemergence
  Plant response rating, Soybean: 40
Soybean (Glycine max); 125 g ai/ha Postemergence
  Plant response rating, Soybean: 80
Soybean (Glycine max); 125 g ai/ha Preemergence
  Plant response rating, Soybean: 0
Soybean (Glycine max); Preemergence
  Plant response rating, Soybean: 0
[1]; 16 g ai/ha Postemergence
  Plant response rating, Sandbur: 0
[1]; 16 g ai/ha Preemergence
  Plant response rating, Sandbur: 0
[1]; 31 g ai/ha Postemergence
  Plant response rating, Sandbur: 0
[1]; 31 g ai/ha Preemergence
  Plant response rating, Sandbur: 10
[1]; 62 g ai/ha Postemergence
  Plant response rating, Sandbur: 0
[1]; 125 g ai/ha Postemergence
  Plant response rating, Sandbur: 0
[1]; 125 g ai/ha Preemergence
  Plant response rating, Sandbur: 30
[1]; Preemergence
  Plant response rating, Sandbur: 40
[2]; 16 g ai/ha Postemergence
  Plant response rating, Barnyardgrass: 0
[2]; 16 g ai/ha Preemergence
  Plant response rating, Barnyardgrass: 0
[2]; 31 g ai/ha Postemergence
  Plant response rating, Barnyardgrass: 10
[2]; 31 g ai/ha Preemergence
  Plant response rating, Barnyardgrass: 0
[2]; 62 g ai/ha Postemergence
  Plant response rating, Barnyardgrass: 20
[2]; 62 g ai/ha Preemergence
  Plant response rating, Barnyardgrass: 0
[2]; 125 g ai/ha Postemergence
  Plant response rating, Barnyardgrass: 20
[2]; 125 g ai/ha Preemergence
  Plant response rating, Barnyardgrass: 0
[3]; 16 g ai/ha Preemergence
  Plant response rating, Lambsquarters: 5
[3]; 31 g ai/ha Preemergence
  Plant response rating, Lambsquarters: 100
[3]; 125 g ai/ha Preemergence
  Plant response rating, Lambsquarters: 100
[3]; Preemergence
  Plant response rating, Lambsquarters: 100
[4]; 16 g ai/ha Postemergence
  Plant response rating, Ryegrass, Italian: 0
[4]; 16 g ai/ha Preemergence
  Plant response rating, Ryegrass, Italian: 0
[4]; 31 g ai/ha Postemergence
  Plant response rating, Ryegrass, Italian: 0
[4]; 31 g ai/ha Preemergence
  Plant response rating, Ryegrass, Italian: 0
[4]; 62 g ai/ha Postemergence
  Plant response rating, Ryegrass, Italian: 0
[4]; 125 g ai/ha Postemergence
  Plant response rating, Ryegrass, Italian: 10
[4]; 125 g ai/ha Preemergence
  Plant response rating, Ryegrass, Italian: 30
[4]; Preemergence
  Plant response rating, Ryegrass, Italian: 30
[5]; 16 g ai/ha Postemergence
  Plant response rating, Dayflower, VA: 20
[5]; 16 g ai/ha Preemergence
  Plant response rating, Dayflower, VA: 0
[5]; 31 g ai/ha Postemergence
  Plant response rating, Dayflower, VA: 40
[5]; 31 g ai/ha Preemergence
  Plant response rating, Dayflower, VA: 0
[5]; 62 g ai/ha Postemergence
  Plant response rating, Dayflower, VA: 70
[5]; 62 g ai/ha Preemergence
  Plant response rating, Dayflower, VA: 0
[5]; 125 g ai/ha Postemergence
  Plant response rating, Dayflower, VA: 70
[5]; 125 g ai/ha Preemergence
  Plant response rating, Dayflower, VA: 20
[6]; 16 g ai/ha Postemergence
  Plant response rating, Crabgrass, Brazil: 0
[6]; 16 g ai/ha Preemergence
  Plant response rating, Crabgrass, Brazil: 0
[6]; 31 g ai/ha Postemergence
  Plant response rating, Crabgrass, Brazil: 5
[6]; 31 g ai/ha Preemergence
  Plant response rating, Crabgrass, Brazil: 0
[6]; 62 g ai/ha Postemergence
  Plant response rating, Crabgrass, Brazil: 20
[6]; 62 g ai/ha Preemergence
  Plant response rating, Crabgrass, Brazil: 0
[6]; 125 g ai/ha Postemergence
  Plant response rating, Crabgrass, Brazil: 25
[6]; 125 g ai/ha Preemergence
  Plant response rating, Crabgrass, Brazil: 5
[7]; 16 g ai/ha Preemergence
  Plant response rating, Morningglory: 35
[7]; 31 g ai/ha Preemergence
  Plant response rating, Morningglory: 35
[7]; 125 g ai/ha Preemergence
  Plant response rating, Morningglory: 25
[7]; Preemergence
  Plant response rating, Morningglory: 35
[8]; 16 g ai/ha Preemergence
  Plant response rating, Surinam Grass: 0
[8]; 31 g ai/ha Preemergence
  Plant response rating, Surinam Grass: 0
[8]; 125 g ai/ha Preemergence
  Plant response rating, Surinam Grass: 0
[8]; Preemergence
  Plant response rating, Surinam Grass: 0
[9]; 16 g ai/ha Preemergence
  Plant response rating, Crabgrass, Large: 0
[9]; 31 g ai/ha Preemergence
  Plant response rating, Crabgrass, Large: 30
[9]; 62 g ai/ha Preemergence
  Plant response rating, Crabgrass, Large: 65
[9]; 125 g ai/ha Preemergence
  Plant response rating, Crabgrass, Large: 95
[10]; 16 g ai/ha Preemergence
  Plant response rating, Foxtail, Giant: 0
[10]; 31 g ai/ha Preemergence
  Plant response rating, Foxtail, Giant: 0
[10]; 62 g ai/ha Preemergence
  Plant response rating, Foxtail, Giant: 0
[10]; 125 g ai/ha Preemergence
  Plant response rating, Foxtail, Giant: 20
[11]; 16 g ai/ha Postemergence
  Plant response rating, Waterhemp_RES2: 85
[11]; 31 g ai/ha Postemergence
  Plant response rating, Waterhemp_RES2: 90
[11]; 62 g ai/ha Postemergence
  Plant response rating, Waterhemp_RES2: 90
[11]; 125 g ai/ha Postemergence
  Plant response rating, Waterhemp_RES2: 95
[12]; 16 g ai/ha Postemergence
  Plant response rating, Waterhemp_RES1: 85
[12]; 31 g ai/ha Postemergence
  Plant response rating, Waterhemp_RES1: 90
[12]; 62 g ai/ha Postemergence
  Plant response rating, Waterhemp_RES1: 95
[12]; 125 g ai/ha Postemergence
  Plant response rating, Waterhemp_RES1: 95
